# Patent US10301348B2, “Compounds for use in prevention and treatment of neurodegenerative diseases and pain” (Academia Sinica, priority 2013, dated 2019)
# Entries after “also recorded” stand apart in the source; their conditions may differ.
# What was measured:
# [1] = test system: SCA3 transgenic mice expressing ataxin-3-Q79; assay: SCA3 transgenic mice: rotarod test and NeuN staining of pontine nuclei; conditions: 4-month-old SCA3 transgenic mice, daily oral 1 mg per day
# Protocol: (A) SCA3 transgenic mice were given drinking water containing vehicle (0.2% DMSO) or T1-11 (0.1 mg/ml) beginning at 4 weeks-old.
# Behavioral test. Balance and coordination functions of mice were determined by performing rotarod test. Mice were placed on the moving drum of a rotarod apparatus (Accelerating Model, Ugo Basile Biological Research Apparatus), which was then accelerated until mouse fell from the drum onto a plate to stop the timer. Latency to fall was measured in four daily trials over the course of 4 days.
# Immunohistochemical staining. Wild-type or SCA3 transgenic mice were anesthetized and perfused transcardially with 4% paraformaldehyde in PBS. Brain was equilibrated in Tissue-Tek embedding medium and frozen in liquid nitrogen. Coronal sections (20 μm) prepared by cryostat sectioning were permeabilized in 0.1% Triton X-100, and incubated at 4° C. for 48 hours with diluted anti-NeuN monoclonal antiserum (Chemicon). Subsequently, sections were washed and incubated with biotinylated horse anti-mouse IgG followed by incubation with avidin-biotin-horseradish peroxidase complex. The sections were then washed and developed in a diaminobenzidine solution. NeuN-positive neurons were visualized and counted by a Leica DM2500 microscope equipped with a Retiga-2000R CCD camera (QImaging) and a 3-axis computer-controlled MAC 600 motorized stage (Ludl Electronics) with the aid of StereoInvestigator software (MBF Bioscience). Each analysis included the processing of 15 brain sections per mouse.
# [2] = test system: mice treated with intermittent cold stress; assay: Intermittent cold stress model of fibromyalgia; format: in vivo; conditions: T1-11 i.p.
# Protocol: (§1) FIGS. 10A-C show the analgesic effect of JMF3464 on a mouse model of fibromyalgia. […] Open arrows indicate the time mice received acid injection. Black arrows indicate the time mice received T1-11 (p.o.). […] The analgesic effect of JMF3464 is dose-dependent. The effective dose started from 100 μg/kg (i.p.).
# Intermittent cold stress model. The fibromyalgia model was developed by Ueda's group, in which mice were treated with intermittent cold stress for 2 days (Nishiyori and Ueda, 2008 Mol Pain. 4:52). Mice treated with intermittent cold stress developed long-lasting (>2 weeks) mechanical and thermal hyperalgesia. Analgesic effects of JMF3464 (i.p. or p.o.) were tested in these mice 5 days after intermittent cold stress. Mechanical hyperalgesia was assayed by testing the withdrawal response of mouse hindpaws to 0.2-mN von Frey filament stimulation.
# [3] = test system: mutant ATXN2 aggregations; assay: Filter retardation assay of mutant SCA2 protein aggregation in pSCA2-104Q-EGFP-transfected cells; format: cell-based, Rat; conditions: 10 μM, 24 h
# Protocol: (§2) FIGS. 4A-B show the effects of T1-11 in preventing mutant SCA2 gene overexpression-induced protein aggregations and behavioral performance in SCA2 transgenic mice. (A) pSCA2-22Q-EGFP or pSCA2-104Q-EGFP-transfected cells were treated with 10 μM T1-11 or 10 μM JMF1907 (a T1-11-derived A2A-R agonist) for 24 h. Cells were harvested and subjected to a filter retardation assay or image acquisition. (B) Wild type (WT) or transgenic mice (SCA2) drank water with or without T1-11. Rotarod performance was used to measure the behavioral function of mice.
# Rat PC12 cells purchased from American Type Culture Collection (ATCC; Manassas, Va., USA) were maintained in DMEM supplemented with 10% horse serum and 5% FBS and incubated in a CO2 incubator (5%) at 37° C. LIPOFECTAMINE™ 2000 (Invitrogen) was used as a vehicle to transfer plasmids into cells according to the manufacture's protocol. Plasmids were kindly provided by Dr. Pulst (Department of Neurology, University of Utah, USA). Normally, 5 μg of DNA combined with 5 μl of LIPOFECTAMINE™ 2000 was applied to each well of 6-well plates. The plating number was (1˜1.5)×10^6 cells/well. After transfections for 6 h, cells were treated with reagents for another 24 h. Images were taken with a Zeiss Axiovert 200M inverted fluorescence microscope (Göttingen, Germany).
# Filter retardation assay. […]
# [4] = test system: SCA2 transgenic mice (ATAXN2^Q127); assay: Rotarod performance of SCA2 transgenic mice; format: in vivo; conditions: compound in drinking water
# Protocol: as §2
# Animals. The C57BL/6 mice were purchased from National Laboratory Animal Center (Taiwan). The transgenic mice (ATAXN2^Q127) were provided by Dr. Pulst. Mice were kept in a soundproof room under a 12/12 h light/dark cycle and controlled temperature (22±2° C.). Food and water were available ad libitum. All efforts were made to minimize the number of animals used and their pain and discomfort, according to the principles and directives of the NIH Guide for the Care and Use of Laboratory Animals. […]
# Rotarod performance. […] Motor coordination was assessed using a rotarod apparatus (UGO BASILE, Comerio, Italy) at an accelerated speed (10 to 28 rpm) over a period of 5 min. […] Latency to fall was automatically recorded. […]
# [5] = Oral bioavailability / pharmacokinetic study in ICR mice; format: in vivo; conditions: male, mouse, plasma, oral 10 mg/kg vs intravenous 1 mg/kg
# Protocol: To measure oral bioavailability of a test compound, blood samples were collected from male ICR mice (6 weeks old; 20-25 g) after oral (10 mg/kg) or intravenous (1 mg/kg) administrations of the test compound. The blood samples collected at the indicated periods were extracted with methanol containing 0.1% formic acid, and then 10 μL of each extracted sample were injected to UPLC-MSMS for quantitation.
# Pharmacokinetic Study. The compound was administered as aqueous solutions in normal saline. Male ICR mice were purchased from BioLASCO Taiwan Co., Ltd. To measure oral bioavailability of test compounds (T1-11 and JMF3464), blood samples were collected from male ICR mice (6 weeks old; […]) after oral (10 mg/kg) or intravenous (1 mg/kg) administrations of test compounds. For T1-11, blood samples were collected at 2, 10, 30, 60, 120, 360 minutes after intravenous administration and at 15, 30, 45, 60, 120, 360 minutes after oral administration. For JMF3464, the blood samples were collected at 2, 10, 30, 60, 120, 240, 360, 480 minutes after intravenous administration and at 15, 30, 60, 90, 120, 240, 360, 480 minutes after oral administration. The blood samples were extracted by methanol with 0.1% formic acid, and then 10 μL of the extracted samples were injected to UPLC-MSMS to for quantitation.
# The pharmacokinetic parameters were obtained using a pharmacokinetic program WinNonlin, fitting data to a noncompartmental model. […] The total plasma clearance (CL) was calculated as dose/AUCi.v.. The oral bioavailability (F) of the test compound by oral administration was calculated from the AUC0-∞ of the oral dose divided by the AUC0-∞ of the i.v. dose.
# [6] = test system: mice with acid-induced chronic widespread pain; assay: Acid-induced chronic widespread pain model of fibromyalgia; format: in vivo
# Protocol: as §1
# Acid-induced chronic widespread pain model. The fibromyalgia model was modified from the acid-induced chronic pain model established by Sluka's group (Sluka et al., 2003 Pain. 106:229-239).
# Mice were briefly anesthetized with 2% vaporized isoflurane and received an i.m. injection of 20 μL genistein (1 μM) in the left gastrocnemius muscle. After 3 minutes, an injection of 20 μL acid saline (pH 4.0) was given to the same site. The mice then developed long-lasting mechanical hyperalgesia for more than 2 weeks. Analgesic effects of T1-11 (p.o. with an 0.9-mm/7-cm gavage) were tested 4 days after mice had developed the mechanical hyperalgesia. Mechanical hyperalgesia was assayed by testing the withdrawal response of mouse hindpaws to 0.2-mN von Frey filament stimulation.
# [7] = background statement, species not given; cited from earlier work
structure (smiles),measurement,setting,value
"OC[C@H]1O[C@@H](n2cnc3c(NCc4ccc(O)cc4)ncnc32)[C@H](O)[C@@H]1O [Compound T1-11, N^6-(4-hydroxybenzyl)adenosine]",pontine neuronal death (NeuN staining),[1],significantly ameliorated neuronal death in the pontine nuclei; also recorded: significantly alleviated pontine neuronal death
same,rotarod performance,[1],significantly better than that of vehicle-treated ataxin-3-Q79 mice; also recorded: significantly improved rotarod performance
same,"analgesic effect, i.p.",[2],excellent analgesic effects
same,mutant ATXN2 aggregations,[3],effective is preventing mutant ATXN2 aggregations
same,behavioral performance (rotarod),[4],effective
same,bioavailability,[5],2.8%
same,"analgesic effect, i.p.",[6]; i.p.,excellent analgesic effects
same,"analgesic effect, oral administration","[6]; p.o., up to 2 mg/kg, von Frey mechanical hyperalgesia",no analgesic effect
same,bioavailability (F),[7],< 5%
